Results published in the supplement of paper PMC10307832.

Key:
Experiment in all cases: relative viability (nuclei count vs DMSO), 5 days (fraction); higher = more cells survive
Irinotecan + Olaparib = compound: CCc1c2c(nc3ccc(OC(=O)N4CCC(N5CCCCC5)CC4)cc13)-c1cc3c(c(=O)n1C2)COC(=O)[C@]3(O)CC [Irinotecan] + O=C(c1cc(Cc2n[nH]c(=O)c3ccccc23)ccc1F)N1CCN(C(=O)C2CC2)CC1 [Olaparib] (partner 8 µM)
In short: (§1)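 Relative viability is defined as nuclei in treated wells over nuclei in vehicle wells. Duplicate plates were run and medians reported. Lung cancer cell lines in 1536-well plates were dosed by pin tool one day after seeding, with one drug or with a fixed anchor-drug dose plus five library-drug doses (not always all listed) in √10 steps, and nuclei were counted after 5 days.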

Irinotecan + Pemetrexed = compound: CCc1c2c(nc3ccc(OC(=O)N4CCC(N5CCCCC5)CC4)cc13)-c1cc3c(c(=O)n1C2)COC(=O)[C@]3(O)CC [Irinotecan] + Nc1nc2[nH]cc(CCc3ccc(C(=O)N[C@@H](CCC(=O)O)C(=O)O)cc3)c2c(=O)[nH]1 [Pemetrexed] (partner 0.2 µM)
In short: as §1

RU-SKI 43 + Olaparib = compound: CC[C@@H](C)CNCC(=O)N1CCC2=C([C@@H]1COC3=CC=CC(=C3)C)C=CS2 [RU-SKI 43] + O=C(c1cc(Cc2n[nH]c(=O)c3ccccc23)ccc1F)N1CCN(C(=O)C2CC2)CC1 [Olaparib] (partner 8 µM)
In short: as §1

Irinotecan + Phenformin = compound: CCc1c2c(nc3ccc(OC(=O)N4CCC(N5CCCCC5)CC4)cc13)-c1cc3c(c(=O)n1C2)COC(=O)[C@]3(O)CC [Irinotecan] + N=C(N)NC(=N)NCCc1ccccc1 [Phenformin] (partner 250 µM)
In short: as §1

Row | Cell Line | relative viability (Irinotecan + Olaparib; first compound 0.6325 µM) | relative viability (Irinotecan + Olaparib; first compound 2 µM) | relative viability (Irinotecan + Olaparib; first compound 6.325 µM) | relative viability (Irinotecan + Olaparib; first compound 20 µM) | relative viability (Irinotecan + Pemetrexed; first compound 0.6325 µM) | relative viability (Irinotecan + Pemetrexed; first compound 2 µM) | relative viability (Irinotecan + Pemetrexed; first compound 6.325 µM) | relative viability (Irinotecan + Pemetrexed; first compound 20 µM) | relative viability (RU-SKI 43 + Olaparib; first compound 0.1 µM) | relative viability (RU-SKI 43 + Olaparib; first compound 0.3162 µM) | relative viability (RU-SKI 43 + Olaparib; first compound 1 µM) | relative viability (RU-SKI 43 + Olaparib; first compound 3.162 µM) | relative viability (RU-SKI 43 + Olaparib; first compound 10 µM) | relative viability (Irinotecan + Phenformin; first compound 0.6325 µM) | relative viability (Irinotecan + Phenformin; first compound 2 µM) | relative viability (Irinotecan + Phenformin; first compound 6.325 µM) | relative viability (Irinotecan + Phenformin; first compound 20 µM)
1 | PC-3 [JPC-3] | 0.766 | 0.908 | 0.448 | 0.221 | 0.512 | 1.25 | 0.522 | 0.463 | 1.09 | 1.3 | 1.2 | 1.2 | 1.06 | 0.424 | 0.472 | 0.318 | 0.349
2 | NCI-H2085 | 0.583 | 0.433 | 0.423 | 0.408 | 0.661 | 0.915 | 0.826 | 0.468 | 0.765 | 0.681 | 0.717 | 0.741 | 0.785 | 0.662 | 0.702 | 0.559 | 0.478
3 | NCI-H1650 | 0.722 | 0.436 | 0.296 | 0.139 | 0.365 | 0.373 | 0.282 | 0.111 | 0.654 | 1.03 | 0.823 | 0.919 | 0.709 | – | 0.418 | 0.34 | 0.196
4 | NCI-H1993 | – | 0.601 | 0.552 | 0.585 | – | 0.637 | 0.545 | 0.506 | 1.12 | 1.22 | 1.16 | 0.948 | 0.942 | 0.536 | 0.503 | 0.531 | 0.551
5 | NCI-H2228 | 0.496 | 0.486 | 0.451 | 0.486 | 0.363 | 0.36 | 0.336 | 0.442 | 0.6 | 0.858 | 0.642 | 0.638 | 0.654 | 0.311 | 0.347 | 0.336 | 0.27
6 | LK-2 | 0.481 | 0.426 | 0.201 | 0.235 | 0.227 | 0.343 | 0.182 | 0.336 | 0.808 | 0.639 | 0.788 | 0.612 | 0.75 | 0.419 | 0.63 | 0.315 | 0.307
7 | LC-2-ad | 0.389 | 0.337 | 0.282 | 0.24 | 0.325 | 0.271 | 0.259 | 0.151 | 0.697 | 0.774 | 0.771 | 0.712 | 0.677 | 0.444 | 0.529 | 0.324 | 0.197
8 | NCI-H596 | 0.638 | 0.707 | 0.64 | 0.828 | 0.471 | 0.608 | 0.595 | 0.748 | 0.719 | 0.548 | 0.654 | 0.712 | 0.709 | 0.699 | 0.83 | 0.784 | 0.745
9 | LCLC-97TM1 | 0.0852 | 0.144 | 0.0736 | 0.13 | 0.124 | 0.196 | 0.129 | 0.133 | 0.408 | 0.347 | 0.535 | 0.446 | 0.416 | 0.322 | 0.205 | 0.127 | 0.115
